Holding throughout (type): cell-based
One experiment has as its system Pseudomonas aeruginosa. In short, it runs like this:
(§1)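 MIC (μg/mL) from susceptibility testing; up to nine strains per species, incl. resistant and Polymyxin-elevated-MIC strains.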

The next experiment concerns Klebsiella pneumoniae. The essentials: as §1
The next experiment deals with Acinetobacter baumannii. The essentials: as §1
For another experiment, the system named is Escherichia coli. In short, it runs like this: as §1

≈ marks a conversion by molar mass, not a printed value.

Turning to `CC(C)C[C@@H]1NC(=O)[C@@H](CC2CCCCC2)NC(=O)[C@H](CCN)NC(=O)[C@@H](NC(=O)[C@H](CN)NC(=O)[C@@H](NC(=O)C(CCN)Cc2ccccc2F)[C@@H](C)O)CCNC(=O)[C@H]([C@@H](C)O)NC(=O)[C@H](CCN)NC(=O)[C@H](CCN)NC1=O` (single isomer, unassigned; isomer 2) [Example 65, 4-amino-2-(2-fluorobenzyl) butanoyl L-Thr-L-Dap-polymyxin [D-cyclohexylalanine]-6 heptapeptide. Isomer 2], in the experiment with Pseudomonas aeruginosa, the “MIC P. aeruginosa 068” value is 2 µg/mL (≈ 1.74 µM), the “MIC P. aeruginosa 070” value stood at 2 µg/mL (≈ 1.74 µM), the “MIC P. aeruginosa ATCC 27853” value is 0.5 µg/mL (≈ 0.435 µM) and the “MIC P. aeruginosa CCUG 59347” value was 0.5 µg/mL (≈ 0.435 µM). For the same molecule, in the experiment with Klebsiella pneumoniae, the “MIC K. pneumoniae 063” value was determined as 16 µg/mL (≈ 13.9 µM), the “MIC K. pneumoniae 065” value was found to be 2 µg/mL (≈ 1.74 µM) and the “MIC K. pneumoniae ATCC 13882” value was 0.25 µg/mL (≈ 0.218 µM). For the same molecule, in the experiment with Acinetobacter baumannii, the “MIC A. baumanii 053” value was over 64 µg/mL, the “MIC A. baumanii 056” value was over 64 µg/mL, the “MIC A. baumanii ATCC BAA-747” value turned out to be 0.25 µg/mL (≈ 0.218 µM) and the “MIC A. baumanii NCTC 13424” value was 1 µg/mL (≈ 0.871 µM). Also, in the experiment on Escherichia coli, the “MIC E. coli 058” value is 4 µg/mL (≈ 3.48 µM), the “MIC E. coli 061” value stood at 16 µg/mL (≈ 13.9 µM) and the “MIC E. coli ATCC 25922” value came to 0.25 µg/mL (≈ 0.218 µM).
Take `CC(C)C[C@@H]1NC(=O)[C@@H](CC2CCCCC2)NC(=O)[C@H](CCN)NC(=O)[C@@H](NC(=O)[C@H](CCN)NC(=O)[C@@H](NC(=O)C(CCN)C2CCCCC2)[C@@H](C)O)CCNC(=O)[C@H]([C@@H](C)O)NC(=O)[C@H](CCN)NC(=O)[C@H](CCN)NC1=O` (single isomer, unassigned; isomer 2) [Example 69, 4-amino-2-cyclohexylbutanoyl polymyxin [D-cyclohexylalanine]-6 nonapeptide isomer 2]: in the experiment on Pseudomonas aeruginosa, the “MIC P. aeruginosa 068” value was 4 µg/mL (≈ 3.52 µM), the “MIC P. aeruginosa 070” value was 8 µg/mL (≈ 7.04 µM), the “MIC P. aeruginosa ATCC 27853” value amounted to 0.25 µg/mL (≈ 0.22 µM) and the “MIC P. aeruginosa CCUG 59347” value came to 0.5 µg/mL (≈ 0.44 µM). Besides, in the experiment with Klebsiella pneumoniae, the “MIC K. pneumoniae 063” value was 16 µg/mL (≈ 14.1 µM), the “MIC K. pneumoniae 065” value is 0.5 µg/mL (≈ 0.44 µM), the “MIC K. pneumoniae ATCC 4352” value turned out to be 0.25 µg/mL (≈ 0.22 µM) and the “MIC K. pneumoniae ATCC 13882” value turned out to be 0.25 µg/mL (≈ 0.22 µM). Besides, in the experiment on Acinetobacter baumannii, the “MIC A. baumanii 053” value is over 64 µg/mL, the “MIC A. baumanii 056” value was determined as 64 µg/mL (≈ 56.3 µM), the “MIC A. baumanii ATCC BAA-747” value amounted to 0.25 µg/mL (≈ 0.22 µM) and the “MIC A. baumanii NCTC 13424” value turned out to be 0.06 µg/mL (≈ 0.0528 µM). For the same molecule, in the experiment with Escherichia coli, the “MIC E. coli 058” value came to 4 µg/mL (≈ 3.52 µM), the “MIC E. coli 061” value was determined as 16 µg/mL (≈ 14.1 µM), the “MIC E. coli ATCC 25922” value came to 0.06 µg/mL (≈ 0.0528 µM) and the “MIC E. coli NCTC 9001” value is 0.03 µg/mL (≈ 0.0264 µM).
As for `CC(C)C[C@@H]1NC(=O)[C@@H](CC2CCCCC2)NC(=O)[C@H](CCN)NC(=O)[C@@H](NC(=O)[C@H](CCN)NC(=O)[C@@H](NC(=O)C(CCN)c2cccs2)[C@@H](C)O)CCNC(=O)[C@H]([C@@H](C)O)NC(=O)[C@H](CCN)NC(=O)[C@H](CCN)NC1=O` (single isomer, unassigned; isomer 2) [Example 70, 4-amino-2-(thiophen-2-yl)butanoyl polymyxin [D-cyclohexylalanine]-6 nonapeptide isomer 2], in the experiment with Pseudomonas aeruginosa, the “MIC P. aeruginosa 068” value is 8 µg/mL (≈ 7.04 µM), the “MIC P. aeruginosa 070” value stood at 32 µg/mL (≈ 28.2 µM), the “MIC P. aeruginosa ATCC 27853” value came out at 0.25 µg/mL (≈ 0.22 µM) and the “MIC P. aeruginosa CCUG 59347” value amounted to 0.5 µg/mL (≈ 0.44 µM). Further, in the experiment with Klebsiella pneumoniae, the “MIC K. pneumoniae 063” value worked out at 64 µg/mL (≈ 56.3 µM), the “MIC K. pneumoniae 065” value is 8 µg/mL (≈ 7.04 µM) and the “MIC K. pneumoniae ATCC 13882” value worked out at 0.125 µg/mL (≈ 0.11 µM). Moreover, in the experiment on Acinetobacter baumannii, the “MIC A. baumanii 053” value turned out to be 32 µg/mL (≈ 28.2 µM), the “MIC A. baumanii 056” value amounted to 16 µg/mL (≈ 14.1 µM), the “MIC A. baumanii ATCC BAA-747” value was 0.25 µg/mL (≈ 0.22 µM) and the “MIC A. baumanii NCTC 13424” value was determined as 0.25 µg/mL (≈ 0.22 µM). Further, in the experiment on Escherichia coli, the “MIC E. coli 058” value stood at 8 µg/mL (≈ 7.04 µM), the “MIC E. coli 061” value was 32 µg/mL (≈ 28.2 µM) and the “MIC E. coli ATCC 25922” value stood at 0.125 µg/mL (≈ 0.11 µM).
